From ChEMBL document CHEMBL6109137, “Design, Synthesis, Evaluation, and SAR of 5-Phenylisoindoline Derivatives, a Potent Class of Small-Molecule Inhibitors Targeting the Programmed Cell Death-1/Programmed Cell Death-Ligand 1 (PD-1/PD-L1) Interaction” (J Med Chem, 2025)
Calls of active or inactive are those of the source. The rule behind the calls is not given here.

Legend:
[1] = Toxicity in C57BL/6J mouse implanted with mouse MC38 cells assessed as brain weight ratio at 40 to 160 mg/kg, IG qd for 7 days; assay type: organism-based; conditions: in vivo, po, 168 h, dose 40-160 mg/kg, time 7 day
[2] = Toxicity in C57BL/6J mouse implanted with mouse MC38 cells assessed as injury in liver at 5 to 20 mg/kg, ip qd for 13 days by H and E staining based analysis; assay type: organism-based; conditions: in vivo, 312 h, dose 5-20 mg/kg, time 13 day
[3] = Toxicity in C57BL/6J mouse implanted with mouse MC38 cells assessed as lung weight ratio at 40 to 160 mg/kg, IG qd for 7 days; assay type: organism-based; conditions: in vivo, po, 168 h, dose 40-160 mg/kg, time 7 day
[4] = Tmax in Sprague-Dawley rat at 10 mg/kg, ip measured for 24 hrs by LC-MS/MS analysis; assay type: ADME, organism-based; conditions: in vivo
[5] = Toxicity in C57BL/6J mouse implanted with mouse MC38 cells assessed as change in brain index at 5 to 20 mg/kg, ip qd for 13 days; assay type: organism-based; conditions: in vivo, 312 h, dose 5-20 mg/kg, time 13 day
PBMC = experiment: Inhibition of apoptosis in human PBMC cells assessed as reduction in PD-L1-induced proportion of terminal phase apoptotic cells by flow cytometry; assay type: functional, cell-based
[6] = Toxicity in C57BL/6J mouse implanted with mouse MC38 cells assessed as injury in lung at 5 to 20 mg/kg, ip qd for 13 days by H and E staining based analysis; assay type: organism-based; conditions: in vivo, 312 h, dose 5-20 mg/kg, time 13 day
[7] = Toxicity in C57BL/6J mouse implanted with mouse MC38 cells assessed as change in kidney index at 5 to 20 mg/kg, ip qd for 13 days; assay type: organism-based; conditions: in vivo, 312 h, dose 5-20 mg/kg, time 13 day
[8] = AUC (0 to 24 hrs) in Sprague-Dawley rat at 20 mg/kg, po measured for 24 hrs by LC-MS/MS analysis; assay type: ADME, organism-based; conditions: in vivo
MC-38 [9] = experiment: Inhibition of cell proliferation of mouse MC38 cells implanted in C57BL/6J mouse assessed as reduction in Ki67 level at 5 to 20 mg/kg, ip qd for 13 days by IHC analysis; assay type: functional, organism-based; conditions: dose 5-20 mg/kg, time 13.0 day
MC-38 [10] = experiment: Antitumor activity against mouse MC38 cells implanted in C57BL/6J mouse at 160 mg/kg, IG qd for 7 days relative to control; assay type: functional; conditions: MC-38, po, 168 h, time 7 day, read-out: TGI
[11] = Toxicity in C57BL/6J mouse implanted with mouse MC38 cells assessed as change in CREA-SOX level at 40 to 160 mg/kg, IG qd for 7 days; assay type: organism-based; conditions: in vivo, po, 168 h, dose 40-160 mg/kg, time 7 day
[12] = Cytotoxicity against human L02 cells measured after 48 hrs by MTT assay; assay type: toxicity, cell-based
[13] = Toxicity in C57BL/6J mouse implanted with mouse MC38 cells assessed as injury in kidney at 5 to 20 mg/kg, ip qd for 13 days by H and E staining based analysis; assay type: organism-based; conditions: in vivo, 312 h, dose 5-20 mg/kg, time 13 day
[14] = Toxicity in C57BL/6J mouse implanted with mouse MC38 cells assessed as spleen weight ratio at 40 to 160 mg/kg, IG qd for 7 days; assay type: organism-based; conditions: in vivo, po, 168 h, dose 40-160 mg/kg, time 7 day
[15] = Toxicity in C57BL/6J mouse implanted with mouse MC38 cells assessed as change in MCH count at 40 to 160 mg/kg, IG qd for 7 days; assay type: organism-based; conditions: in vivo, po, 168 h, dose 40-160 mg/kg, time 7 day
Mus musculus [16] = experiment: Restoration of immune function in C57BL/6J mouse implanted with mouse MC38 cells assessed as increase in serum IL-2 level administered intraperitoneally once daily for 13 days by ELISA; assay type: functional, organism-based; conditions: dose 5-20 mg/kg, route ip, time 13.0 day
[17] = Cytotoxicity against mouse MC38 cells measured after 48 hrs by MTT assay; assay type: toxicity, cell-based, MC-38
[18] = Binding affinity to human PD-L1 assessed as dissociation constant by SPR analysis
Mus musculus [19] = experiment: Restoration of immune function in C57BL/6J mouse implanted with mouse MC38 cells assessed as increase in serum TNF-alpha level administered intraperitoneally once daily for 13 days by ELISA; assay type: functional, organism-based; conditions: dose 5-20 mg/kg, route ip, time 13.0 day
Mus musculus [20] = experiment: Restoration of immune function in C57BL/6J mouse implanted with mouse MC38 cells assessed as increase in serum IL-6 level administered intraperitoneally once daily for 13 days by ELISA; assay type: functional, organism-based; conditions: dose 5-20 mg/kg, route ip, time 13.0 day
[21] = Toxicity in C57BL/6J mouse implanted with mouse MC38 cells assessed as change in AST level at 40 to 160 mg/kg, IG qd for 7 days; assay type: organism-based; conditions: in vivo, po, 168 h, dose 40-160 mg/kg, time 7 day
[22] = Toxicity in C57BL/6J mouse implanted with mouse MC38 cells assessed as kidney weight ratio at 40 to 160 mg/kg, IG qd for 7 days; assay type: organism-based; conditions: in vivo, po, 168 h, dose 40-160 mg/kg, time 7 day
[23] = Toxicity in C57BL/6J mouse implanted with mouse MC38 cells assessed as body weight change at 40 to 160 mg/kg, IG qd for 7 days; assay type: organism-based; conditions: in vivo, po, 168 h, dose 40-160 mg/kg, time 7 day
[24] = Cytotoxicity against human HaCaT cells measured after 48 hrs by MTT assay; assay type: toxicity, cell-based
[25] = Toxicity in C57BL/6J mouse implanted with mouse MC38 cells assessed as change in spleen index at 5 to 20 mg/kg, ip qd for 13 days; assay type: organism-based; conditions: in vivo, 312 h, dose 5-20 mg/kg, time 13 day
[26] = Toxicity in C57BL/6J mouse implanted with mouse MC38 cells assessed as animal mortality at 40 to 160 mg/kg, IG qd for 7 days; assay type: organism-based; conditions: in vivo, po, 168 h, dose 40-160 mg/kg, time 7 day
[27] = Clearance in Sprague-Dawley rat at 20 mg/kg, po measured for 24 hrs by LC-MS/MS analysis; assay type: ADME, organism-based; conditions: in vivo
[28] = Toxicity in C57BL/6J mouse implanted with mouse MC38 cells assessed as change in excised body weight at 40 to 160 mg/kg, IG qd for 7 days; assay type: organism-based; conditions: in vivo, po, 168 h, dose 40-160 mg/kg, time 7 day
[29] = Clearance in Sprague-Dawley rat at 1 mg/kg, iv measured for 24 hrs by LC-MS/MS analysis; assay type: ADME, organism-based; conditions: in vivo
[30] = Clearance in Sprague-Dawley rat at 10 mg/kg, ip measured for 24 hrs by LC-MS/MS analysis; assay type: ADME, organism-based; conditions: in vivo
[31] = Toxicity in C57BL/6J mouse implanted with mouse MC38 cells assessed as change in body weight at 5 to 20 mg/kg, ip qd for 13 days; assay type: organism-based; conditions: in vivo, 312 h, dose 5-20 mg/kg, time 13 day
[32] = Oral bioavailability in Sprague-Dawley rat at 20 mg/kg measured for 24 hrs by LC-MS/MS analysis; assay type: ADME, organism-based; conditions: in vivo
[33] = Half life in Sprague-Dawley rat at 1 mg/kg, iv measured for 24 hrs by LC-MS/MS analysis; assay type: ADME, organism-based; conditions: in vivo
MC-38 [34] = experiment: Antitumor activity against mouse MC38 cells implanted in C57BL/6J mouse assessed as increase in granzyme B level at 5 to 20 mg/kg, ip qd for 13 days by IHC analysis; assay type: functional, organism-based; conditions: dose 5-20 mg/kg, time 13.0 day
[35] = Toxicity in C57BL/6J mouse implanted with mouse MC38 cells assessed as change in MCV count at 40 to 160 mg/kg, IG qd for 7 days; assay type: organism-based; conditions: in vivo, po, 168 h, dose 40-160 mg/kg, time 7 day
MC-38 [36] = experiment: Antitumor activity against mouse MC38 cells implanted in C57BL/6J mouse at 5 to 20 mg/kg, ip qd; assay type: functional, organism-based; conditions: dose 5-20 mg/kg, time 13.0 day
[37] = Toxicity in C57BL/6J mouse implanted with mouse MC38 cells assessed as change in HGB count at 40 to 160 mg/kg, IG qd for 7 days; assay type: organism-based; conditions: in vivo, po, 168 h, dose 40-160 mg/kg, time 7 day
MC-38 [38] = experiment: Antitumor activity against mouse MC38 cells implanted in C57BL/6J mouse administered intraperitoneally once a day for 13 days; assay type: functional, cell-based; conditions: dose 5-20 mg/kg, route ip, time 13.0 day

**Q.** With `C[C@H](N)C(=O)N1Cc2ccc(-c3cccc(-c4ccc5c(c4)OCCO5)c3Cl)cc2C1.Cl` as the compound, how does the Activity [1] read?
**A.** Its Activity is “Non-toxic”.

**Q.** And the Activity [2]?
**A.** The Activity was “Non-toxic”.

**Q.** And the Activity [3]?
**A.** The Activity was “Non-toxic”.

**Q.** And the Tmax [4]?
**A.** The Tmax was 0.42 h.

**Q.** And the Activity [5]?
**A.** Its Activity is “Non-toxic”.

**Q.** What about the inhibition (PBMC) of the same compound?
**A.** The inhibition was “Active”.

**Q.** And the Activity [6]?
**A.** The Activity was “Non-toxic”.

**Q.** And the Activity [7]?
**A.** Its Activity is “Non-toxic”.

**Q.** What about the AUC(0-t) at 24 h [8] of the same compound?
**A.** The AUC(0-t) at 24 h was 467 ng·h/mL.

**Q.** What about the inhibition (MC-38 [9]) of the same compound?
**A.** Its inhibition is “Active”.

**Q.** What about the inhibition in vivo at 160 mg/kg (MC-38 [10]) of the same compound?
**A.** Its inhibition in vivo at 160 mg/kg is 64.4%.

**Q.** What about the Activity [11] of the same compound?
**A.** The Activity was “Non-toxic”.

**Q.** What about the IC50 at 48 h [12] of the same compound?
**A.** Its IC50 at 48 h is over 10 µM.

**Q.** What about the Activity [13] of the same compound?
**A.** Its Activity is “Non-toxic”.

**Q.** And the Activity [14]?
**A.** The Activity was “Non-toxic”.

**Q.** What about the Activity [15] of the same compound?
**A.** Its Activity is “Non-toxic”.

**Q.** And the Activity (Mus musculus [16])?
**A.** The Activity was “Dose-dependent-effect”.

**Q.** And the IC50 at 48 h [17]?
**A.** The IC50 at 48 h was 12 µM.

**Q.** And the Kd [18]?
**A.** Its Kd is 0.23 µM.

**Q.** What about the Activity (Mus musculus [19]) of the same compound?
**A.** Its Activity is “Dose-dependent-effect”.

**Q.** And the Activity (Mus musculus [20])?
**A.** The Activity was “Dose-dependent-effect”.

**Q.** And the Activity [21]?
**A.** Its Activity is “Non-toxic”.

**Q.** What about the Activity [22] of the same compound?
**A.** The Activity was “Non-toxic”.

**Q.** What about the Activity [23] of the same compound?
**A.** The Activity was “Non-toxic”.

**Q.** What about the IC50 at 48 h [24] of the same compound?
**A.** Its IC50 at 48 h is over 100 µM.

**Q.** And the Activity [25]?
**A.** Its Activity is “Non-toxic”.

**Q.** And the Activity [26]?
**A.** The Activity was “Non-toxic”.

**Q.** And the CL/F [27]?
**A.** Its CL/F is 401 mL/min/kg.

**Q.** What about the Activity [28] of the same compound?
**A.** The Activity was “Non-toxic”.

**Q.** What about the clearance [29] of the same compound?
**A.** Its clearance is 87.7 mL/min/kg.

**Q.** And the CL/F [30]?
**A.** The CL/F was 103 mL/min/kg.

**Q.** And the Activity [31]?
**A.** The Activity was “Non-toxic”.

**Q.** What about the bioavailability [32] of the same compound?
**A.** The bioavailability was 21.4%.

**Q.** And the half-life [33]?
**A.** Its half-life is 1.61 h.

**Q.** And the Activity (MC-38 [34])?
**A.** Its Activity is “Active”.

**Q.** And the Activity [35]?
**A.** Its Activity is “Non-toxic”.

**Q.** And the Activity (MC-38 [36])?
**A.** The Activity was “Time-dependent-effect”.

**Q.** And the Activity [37]?
**A.** The Activity was “Non-toxic”.

**Q.** What about the Activity (MC-38 [38]) of the same compound?
**A.** Its Activity is “Dose-dependent-effect”.
